# Measured values reported in ChEMBL document CHEMBL1132008, “Isoxazoline GPIIb/IIIa antagonists bearing a phosphoramidate” (Bioorg Med Chem Lett, 1999).
# What was measured:
# [1] = biological target: T1, Integrin alpha-IIb/beta-3 (Homo sapiens, UniProt P05106+P08514); experiment: Inhibition of fibrinogen (Fg) interaction with GPIIb/IIIa in gel filtered platelets; format: functional
# [2] = biological target: T1, Integrin alpha-IIb/beta-3; experiment: Affinity for purified human platelet glycoprotein alpha IIb beta3 integrin receptor in ELISA
# [3] = Inhibition of platelet aggregation in citreated human platelet rich plasma (PRP)
# T1 sequence (P05106 27-788 limits assumed): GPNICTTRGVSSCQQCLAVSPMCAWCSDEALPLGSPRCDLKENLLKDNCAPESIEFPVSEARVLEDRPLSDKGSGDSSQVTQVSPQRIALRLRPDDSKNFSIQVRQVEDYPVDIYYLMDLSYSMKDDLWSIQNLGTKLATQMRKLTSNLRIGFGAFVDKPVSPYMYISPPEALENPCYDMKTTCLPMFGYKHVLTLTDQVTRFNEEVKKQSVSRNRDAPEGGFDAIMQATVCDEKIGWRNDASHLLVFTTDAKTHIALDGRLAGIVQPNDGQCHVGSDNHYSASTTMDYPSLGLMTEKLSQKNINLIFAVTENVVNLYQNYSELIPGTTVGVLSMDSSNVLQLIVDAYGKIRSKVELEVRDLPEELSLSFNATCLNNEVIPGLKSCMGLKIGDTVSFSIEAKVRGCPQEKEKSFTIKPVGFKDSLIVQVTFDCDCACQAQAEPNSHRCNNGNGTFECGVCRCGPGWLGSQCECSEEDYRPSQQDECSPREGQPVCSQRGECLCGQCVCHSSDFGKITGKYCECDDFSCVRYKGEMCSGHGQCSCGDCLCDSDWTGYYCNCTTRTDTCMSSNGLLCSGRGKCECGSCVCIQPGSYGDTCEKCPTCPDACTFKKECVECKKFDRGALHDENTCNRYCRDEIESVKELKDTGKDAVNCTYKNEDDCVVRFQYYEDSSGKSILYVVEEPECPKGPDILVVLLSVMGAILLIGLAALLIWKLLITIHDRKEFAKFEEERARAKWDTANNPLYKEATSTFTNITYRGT
# T1 sequence (P08514 32-887 limits assumed): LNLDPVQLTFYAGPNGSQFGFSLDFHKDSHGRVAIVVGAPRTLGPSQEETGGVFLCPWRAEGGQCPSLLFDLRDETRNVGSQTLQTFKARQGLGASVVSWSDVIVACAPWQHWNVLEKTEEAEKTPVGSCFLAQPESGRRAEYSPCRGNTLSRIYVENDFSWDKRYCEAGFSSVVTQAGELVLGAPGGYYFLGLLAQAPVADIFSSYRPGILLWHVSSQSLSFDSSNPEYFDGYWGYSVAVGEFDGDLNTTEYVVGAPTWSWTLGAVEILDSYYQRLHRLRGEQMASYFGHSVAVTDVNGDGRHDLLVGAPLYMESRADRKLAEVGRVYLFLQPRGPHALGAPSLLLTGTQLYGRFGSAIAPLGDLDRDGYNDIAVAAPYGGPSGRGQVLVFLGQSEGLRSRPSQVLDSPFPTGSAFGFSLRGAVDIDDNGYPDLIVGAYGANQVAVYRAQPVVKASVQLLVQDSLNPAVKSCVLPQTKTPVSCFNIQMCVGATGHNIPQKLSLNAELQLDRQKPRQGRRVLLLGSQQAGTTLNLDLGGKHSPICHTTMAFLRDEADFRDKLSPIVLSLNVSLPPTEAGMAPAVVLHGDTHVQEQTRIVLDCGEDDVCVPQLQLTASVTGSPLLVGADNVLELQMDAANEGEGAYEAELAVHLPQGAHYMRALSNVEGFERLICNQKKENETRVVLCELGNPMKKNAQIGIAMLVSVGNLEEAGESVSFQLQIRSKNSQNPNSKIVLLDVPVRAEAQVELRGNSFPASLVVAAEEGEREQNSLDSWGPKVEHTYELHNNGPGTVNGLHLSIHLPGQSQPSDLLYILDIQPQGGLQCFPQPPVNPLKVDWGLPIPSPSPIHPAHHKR
# T1 sequence (P08514 891-1039 limits assumed): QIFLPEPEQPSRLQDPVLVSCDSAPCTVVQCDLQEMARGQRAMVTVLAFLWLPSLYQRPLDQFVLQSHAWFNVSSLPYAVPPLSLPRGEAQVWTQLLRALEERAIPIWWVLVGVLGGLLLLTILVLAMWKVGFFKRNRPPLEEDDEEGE
SMILES,IC50 [1] [nM],IC50 [2] [nM],IC50 [3] [nM]
CCCCOP(=O)(NC(CNC(=O)CC1CC(c2ccc(C(=N)N)cc2)=NO1)C(=O)O)OCCCC (stereo not given),55,1.2,
COP(=O)(NC(CNC(=O)CC1CC(c2ccc(C(=N)N)cc2)=NO1)C(=O)O)OC (stereo not given),54,0.55,
CCCCOC(=O)N[C@@H](CNC(=O)C[C@H]1CC(c2ccc(C(=N)N)cc2)=NO1)C(=O)O,21,,50
CCOP(=O)(NC(CNC(=O)CC1CC(c2ccc(C(=N)N)cc2)=NO1)C(=O)O)OCC (stereo not given),102,1.7,

# Next, values leading:
IC50 [1] [nM],IC50 [2] [nM],IC50 [3] [nM],SMILES
229,2.6,,N=C(N)c1ccc(C2=NOC(CC(=O)NCC(NP(=O)(O)O)C(=O)O)C2)cc1 (stereo not given)
140,,,N=C(N)c1ccc(C2=NOC(CC(=O)NCCC(=O)O)C2)cc1 (stereo not given)
73,0.86,,CC(C)OP(=O)(NC(CNC(=O)CC1CC(c2ccc(C(=N)N)cc2)=NO1)C(=O)O)OC(C)C (stereo not given)
46,1.5,,C=CCOP(=O)(NC(CNC(=O)CC1CC(c2ccc(C(=N)N)cc2)=NO1)C(=O)O)OCC=C (stereo not given)
